# Experimental data published in patent US20260083769A1, “2-Aminopropane-1,3-Diol-Capped Cationic Peptoids for Nucleic Acid Delivery” (NUTCRACKER THERAPEUTICS, INC., priority 2022, published 2026).
# Like-named read-outs stand apart in the source and are kept apart here. Where a SMILES comes first, the peptide text is derived from it. [ ]: non-standard residue; d: D form. Gly(Nα-oleyl) = CCCCCCCC/C=C\CCCCCCCCNCC(=O)O; Gly(N-dodecyl) = CCCCCCCCCCCCNCC(=O)O; N(CH(CH2OH)2)Gly = O=C(O)CNC(CO)CO; N(octyl)Gly = CCCCCCCCNCC(=O)O; NDecylGly = CCCCCCCCCCNCC(=O)O; NHexGly = CCCCCCNCC(=O)O
# Legend:
# [1] = Percent encapsulated mRNA, RiboGreen assay; assay type: physicochemical
# Method: Percent encapsulation. The percentage of mRNA encapsulated within the delivery vehicle complexes containing Fluc mRNA was determined using a modified RiboGreen® assay. In general, formulated mRNA samples were diluted to 500 ng/ml in Tris-EDTA buffer with or without Triton-X™. RiboGreen® (Invitrogen) was added at a 200-fold dilution, and the plate was incubated for 5 minutes. Fluorescence was measured at Ex. […]/Em. 520 nm and encapsulated mRNA was calculated by taking the ratio of fluorescence for non-lysed particles versus lysed particles.
# The mRNA concentration and the percentage of encapsulated mRNA were determined using a fluorescence-based Quant-iT™ RiboGreen® RNA Reagent Kit using a literature procedure. To determine the mRNA concentration, delivery vehicles were incubated with 2% Triton™ X-100 for 10 min to release entrapped mRNA, followed by addition of RiboGreen® RNA reagent. The fluorescence intensity of mRNA-RiboGreen® reagent complex (excitation at 485 nm and emission at 530 nm) was detected using a microplate reader. The ratio of fluorescence without and with Triton™ X-100 were used to calculate the percentage of encapsulated mRNA.
# [2] = Particle size and polydispersity (PDI) of delivery vehicles by dynamic light scattering; assay type: physicochemical
# Method: The resulting delivery vehicle complexes were evaluated by dynamic light scattering (DLS) to determine the volume average particle size/diameter (nm) and the size polydispersity index (PDI) within the delivery vehicle complex.
# Particle size. Particle sizes and size distributions were measured using a Wyatt DynaPro® Plate Reader III. In general, formulated samples were diluted to 2 ng/μL in 100 µL PBS. Data is reported as the hydrodynamic diameter (in nm) of the cumulant fit of the correlation function, and the polydispersity of that measurement.
# In one particular instance, the size and polydispersity (PDI) of delivery vehicles was measured by dynamic light scattering in PBS using a DynaPro® plate reader III. The zeta potential of delivery vehicles was determined using Nano-ZS™ particle analyzer. Zeta sample was diluted to 30 uM total lipid in a weakly buffered solution of 10 mM HEPES, 10 mM MES, 10 mM ammonium acetate pH 7. Measurements were collected in duplicate for over 30 run with the voltage manually set to […]
# [3] = Apparent particle pKa, TNS fluorescence assay; assay type: physicochemical; details: Table 5; apparent particle pKa of delivery vehicle
# Method: The apparent particle pKa was assessed by a TNS fluorescence assay. Briefly, particles were diluted to 130 uM total lipid in TNS buffer ranging in pH 3-11 for 10 minutes with […] of TNS probe. The fluorescence was measured at room temperature in a plate reader ex 320/em 445. Fluorescence intensity was normalized to the minimal and maximal values and the pKa was determined by a 3 parameter fit to determine the half maximum of the curve.
# [4] = RBC hemolysis as metric for fusogenicity; assay type: cell-based; details: sheep red blood cells (RBCs), 5% v/v
# Method: RBC hemolysis was used as a metric for fusogenicity of LNPs at low pH. […] Particles were diluted to […] total lipid in well with 5% RBC solution and incubated at 37° C. for 45 min. Supernatant was collected and absorbance read on a microplate reader at 425 nm. Fusion was normalized to a fully lysed sample with 2% Triton™ and a buffer-only control. % hemolysis=100*[(ABS T-background)−(ABS sample-background)/(ABS T-background)].
# [5] = Table 5, delivery vehicle comprising the peptoid, Formulation D22, fLuc mRNA
# [6] = Table 5, delivery vehicle, 37° C. 45 min, pH 5, read-out: Hemolysis at pH 5
# [7] = Table 5, delivery vehicle, 37° C. 45 min, pH 7, read-out: Hemolysis at pH 7
# [8] = Table 6, comparative peptoid delivery vehicle
# [9] = Table 6, comparative peptoid delivery vehicle, pH 5, read-out: Hemolysis at pH 5
# [10] = Table 6, comparative peptoid delivery vehicle, pH 7, read-out: Hemolysis at pH 7
SMILES,"% Encapsulation [1, 5] [%]","PDI [2, 5]","Particle Size (nm) [2, 5] [nm]",pKa (TNS) [3],"% Encapsulation [1, 8] [%]","PDI [2, 8]","Particle Size (nm) [2, 8] [nm]","hemolysis at 45 min, 150 mM total lipid [4, 6] [%]","hemolysis at 45 min, 150 mM total lipid [4, 7] [%]","hemolysis at 45 min, 150 mM total lipid [4, 9] [%]","hemolysis at 45 min, 150 mM total lipid [4, 10] [%]"
CCCCCCCC/C=C\CCCCCCCCN(CC(=O)N(CCCCCCCCCCCC)CC(N)=O)C(=O)CN(CCCCCCCCCCCC)C(=O)CNC(CO)CO [Compound 4] (H-[N(CH(CH2OH)2)Gly][Gly(N-dodecyl)][Gly(Nα-oleyl)][Gly(N-dodecyl)]-NH2),12.3,Multimodal,631.3,,,,,,,,
CCCCCCCCCCN(CC(N)=O)C(=O)CN(CCCCCCCCCC)C(=O)CN(CCCCCCCCCC)C(=O)CN(CC(CC)CCCC)C(=O)CN(CCCCCCCCCC)C(=O)CN(CCCCCCCCCC)C(=O)CN(CCCCCCCCCC)C(=O)CN(CC(CC)CCCC)C(=O)CNC(CO)CO (stereo not shown) [Compound 8],,,,5.786,,,,0.5,-0.1,,
CCCCCCCCN(CC(N)=O)C(=O)CN(CCCCCCCC)C(=O)CN(CCCCCCCC)C(=O)CN(CC(CC)CCCC)C(=O)CN(CCCCCCCC)C(=O)CN(CCCCCCCC)C(=O)CN(CCCCCCCC)C(=O)CN(CC(CC)CCCC)C(=O)CNC(CO)CO (stereo not shown) [Compound 11],66.1,0.111,106.6,,,,,,,,
CCCCCCCCCCCCN(CC(=O)N(CC(=O)N(CCCCCCCCCCCC)CC(=O)N(CC(N)=O)CC(CC)CCCC)CC(CC)CCCC)C(=O)CNC(CO)CO (stereo not shown) [Compound 23],2.3,Multimodal,1269.5,,,,,,,,
CCCCCCCCN(CC(=O)N(CCCCCCCC)CC(=O)N(CCCCCC)CC(=O)N(CCCCCCCC)CC(=O)N(CCCCCCCC)CC(=O)N(CCCCCC)CC(N)=O)C(=O)CNC(CO)CO [Compound 25] (H-[N(CH(CH2OH)2)Gly][N(octyl)Gly][N(octyl)Gly][NHexGly][N(octyl)Gly][N(octyl)Gly][NHexGly]-NH2),24.3,Multimodal,2220.3,,,,,94.6,94.7,,
CCCCCCCCCCN(CC(N)=O)C(=O)CN(CCCCCCCC)C(=O)CN(CCCCCCCC)C(=O)CN(CCCCCCCCCC)C(=O)CN(CCCCCCCC)C(=O)CN(CCCCCCCC)C(=O)CNC(CO)CO [Compound 26] (H-[N(CH(CH2OH)2)Gly][N(octyl)Gly][N(octyl)Gly][NDecylGly][N(octyl)Gly][N(octyl)Gly][NDecylGly]-NH2),66.1,Multimodal,421.9,,,,,,,,
CCCCCCCCCCN(CC(=O)N(CCCCCC)CC(N)=O)C(=O)CN(CCCCCCCC)C(=O)CN(CCCCCC)C(=O)CN(CCCCCCCCCC)C(=O)CN(CCCCCCCC)C(=O)CNC(CO)CO [Compound 32] (H-[N(CH(CH2OH)2)Gly][N(octyl)Gly][NDecylGly][NHexGly][N(octyl)Gly][NDecylGly][NHexGly]-NH2),23.3,Multimodal,692.4,,,,,,,,

# Continued, in another order:
"% Encapsulation [1, 5] [%]","PDI [2, 5]","Particle Size (nm) [2, 5] [nm]",pKa (TNS) [3],"% Encapsulation [1, 8] [%]","PDI [2, 8]","Particle Size (nm) [2, 8] [nm]",SMILES,"hemolysis at 45 min, 150 mM total lipid [4, 6] [%]","hemolysis at 45 min, 150 mM total lipid [4, 7] [%]","hemolysis at 45 min, 150 mM total lipid [4, 9] [%]","hemolysis at 45 min, 150 mM total lipid [4, 10] [%]"
,,,,86.6,0.206,61.3,"CCCCCCCCCCCCN(CC(N)=O)C(=O)CN(CCCCCCCCCCCC)C(=O)CN(CCCCCCCCCCCC)C(=O)CN(CCCCCCCCCCCC)C(=O)CNCCN [Compound C1, reference compound]",,,-15.1,39.2
,,,,92.2,0.179,67.0,"CCCCCCCCCCCCN(CC(N)=O)C(=O)CN(CCCCCCCCCCCC)C(=O)CN(CCCCCCCCCCCC)C(=O)CN(CCCCCCCCCCCC)C(=O)CNCCCO [Compound C2, reference compound]",,,10.6,37.2
,,,,87.5,0.196,65.3,"CCCCCCCCCCCCN(CC(N)=O)C(=O)CN(CCCCCCCCCCCC)C(=O)CN(CCCCCCCCCCCC)C(=O)CN(CCCCCCCCCCCC)C(=O)CNCCO [Compound C3, reference compound]",,,24.4,51.1
,,,,90.5,0.186,67.7,"CCCCCCCCCCCCN(CC(N)=O)C(=O)CN(CCCCCCCCCCCC)C(=O)CN(CCCCCCCCCCCC)C(=O)CN(CCCCCCCCCCCC)C(=O)CN(CCO)CCO [Compound C4, reference compound]",,,4.9,12
,,,,97.5,0.135,57.3,"CCCCCCCCCCCCN(CC(N)=O)C(=O)CN(CCCCCCCCCCCC)C(=O)CN(CCCCCCCCCCCC)C(=O)CN(CCCCCCCCCCCC)C(=O)CNCCCN [Compound C5, reference compound]",,,-15.6,39.8
,,,,92.6,0.223,67.1,"CCCCCCCCCCCCN(CC(N)=O)C(=O)CN(CCCCCCCCCCCC)C(=O)CN(CCCCCCCCCCCC)C(=O)CN(CCCCCCCCCCCC)C(=O)CNCCOC [Compound C6, reference compound]",,,4.9,22.7
,,,,93.1,0.219,71.3,"CCCCCCCCCCCCN(CC(N)=O)C(=O)CN(CCCCCCCCCCCC)C(=O)CN(CCCCCCCCCCCC)C(=O)CN(CCCCCCCCCCCC)C(=O)CNCCCOC [Compound C7, reference compound]",,,31.6,65.5
,,,,93.5,0.192,60.2,"CCCCCCCCCCCCN(CC(N)=O)C(=O)CN(CCCCCCCCCCCC)C(=O)CN(CCCCCCCCCCCC)C(=O)CN(CCCCCCCCCCCC)C(=O)CNCCCn1ccnc1 [Compound C8, reference compound]",,,2.3,8.1
,,,,98.8,0.201,63.0,"CCCCCCCCCCCCN(CC(N)=O)C(=O)CN(CCCCCCCCCCCC)C(=O)CN(CCCCCCCCCCCC)C(=O)CN(CCCCCCCCCCCC)C(=O)CNCCCn1ccnc1C [Compound C9, reference compound]",,,0.7,2.4
,,,,86.6,0.520,84.6,"CCCCCCCCCCCCN(CC(N)=O)C(=O)CN(CCCCCCCCCCCC)C(=O)CN(CCCCCCCCCCCC)C(=O)CN(CCCCCCCCCCCC)C(=O)CNCCCN1CCOCC1 [Compound C10, reference compound]",,,0.6,1
,,,,92.4,0.179,70.2,"CCCCCCCCCCCCN(CC(N)=O)C(=O)CN(CCCCCCCCCCCC)C(=O)CN(CCCCCCCCCCCC)C(=O)CN(CCCCCCCCCCCC)C(=O)CNCCCN1CCCCC1 [Compound C11, reference compound]",,,9.6,10.2
,,,,95.9,0.175,62.4,"CCCCCCCCCCCCN(CC(N)=O)C(=O)CN(CCCCCCCCCCCC)C(=O)CN(CCCCCCCCCCCC)C(=O)CN(CCCCCCCCCCCC)C(=O)CN(CC)CCO [Compound C12, reference compound]",,,-2.4,3.9
,,,,95.4,0.180,57.6,"CCCCCCCCCCCCN(CC(N)=O)C(=O)CN(CCCCCCCCCCCC)C(=O)CN(CCCCCCCCCCCC)C(=O)CN(CCCCCCCCCCCC)C(=O)CNCCN(C)C [Compound C13, reference compound]",,,-12.3,8.2
